# Reference: paper PMC3895372 (Nature communications, 2014)
# What was measured:
# m-calpain = target: T1, m-calpain (Rattus norvegicus, UniProt Q07009); assay: fluorogenic Suc-Leu-Tyr-AMC hydrolysis assay with purified enzyme; type: biochemical
# T1 sequence (Q07009 20-700): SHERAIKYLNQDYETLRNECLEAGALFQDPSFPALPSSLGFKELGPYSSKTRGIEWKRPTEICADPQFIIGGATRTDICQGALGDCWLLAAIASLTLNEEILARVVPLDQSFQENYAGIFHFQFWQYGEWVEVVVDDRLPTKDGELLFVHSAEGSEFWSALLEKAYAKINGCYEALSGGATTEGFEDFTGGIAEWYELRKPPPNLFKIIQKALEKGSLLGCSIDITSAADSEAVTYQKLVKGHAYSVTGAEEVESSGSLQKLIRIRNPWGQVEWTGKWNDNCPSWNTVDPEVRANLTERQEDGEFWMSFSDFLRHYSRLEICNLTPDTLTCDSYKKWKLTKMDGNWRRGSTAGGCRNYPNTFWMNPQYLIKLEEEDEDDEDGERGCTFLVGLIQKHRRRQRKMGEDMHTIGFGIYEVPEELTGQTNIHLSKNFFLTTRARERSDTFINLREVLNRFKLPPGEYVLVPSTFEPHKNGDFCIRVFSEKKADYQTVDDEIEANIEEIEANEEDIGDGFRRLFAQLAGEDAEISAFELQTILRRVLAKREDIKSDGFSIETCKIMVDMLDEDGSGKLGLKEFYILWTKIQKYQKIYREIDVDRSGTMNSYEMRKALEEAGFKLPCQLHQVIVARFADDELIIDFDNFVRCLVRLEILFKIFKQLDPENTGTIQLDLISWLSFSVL
# T1 sequence (Q64537 1-270 partner): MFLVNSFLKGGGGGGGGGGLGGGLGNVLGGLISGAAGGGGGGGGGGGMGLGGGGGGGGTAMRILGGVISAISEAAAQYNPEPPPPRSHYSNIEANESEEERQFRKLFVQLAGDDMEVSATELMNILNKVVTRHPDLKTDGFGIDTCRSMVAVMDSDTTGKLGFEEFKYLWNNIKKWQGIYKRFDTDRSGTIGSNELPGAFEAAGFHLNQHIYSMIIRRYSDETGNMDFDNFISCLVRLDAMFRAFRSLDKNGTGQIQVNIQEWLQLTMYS
# µ-calpain = target: T2, µ-calpain (Sus scrofa, UniProt P35750); assay: as above; type: biochemical
# T2 sequence (P35750 1-714): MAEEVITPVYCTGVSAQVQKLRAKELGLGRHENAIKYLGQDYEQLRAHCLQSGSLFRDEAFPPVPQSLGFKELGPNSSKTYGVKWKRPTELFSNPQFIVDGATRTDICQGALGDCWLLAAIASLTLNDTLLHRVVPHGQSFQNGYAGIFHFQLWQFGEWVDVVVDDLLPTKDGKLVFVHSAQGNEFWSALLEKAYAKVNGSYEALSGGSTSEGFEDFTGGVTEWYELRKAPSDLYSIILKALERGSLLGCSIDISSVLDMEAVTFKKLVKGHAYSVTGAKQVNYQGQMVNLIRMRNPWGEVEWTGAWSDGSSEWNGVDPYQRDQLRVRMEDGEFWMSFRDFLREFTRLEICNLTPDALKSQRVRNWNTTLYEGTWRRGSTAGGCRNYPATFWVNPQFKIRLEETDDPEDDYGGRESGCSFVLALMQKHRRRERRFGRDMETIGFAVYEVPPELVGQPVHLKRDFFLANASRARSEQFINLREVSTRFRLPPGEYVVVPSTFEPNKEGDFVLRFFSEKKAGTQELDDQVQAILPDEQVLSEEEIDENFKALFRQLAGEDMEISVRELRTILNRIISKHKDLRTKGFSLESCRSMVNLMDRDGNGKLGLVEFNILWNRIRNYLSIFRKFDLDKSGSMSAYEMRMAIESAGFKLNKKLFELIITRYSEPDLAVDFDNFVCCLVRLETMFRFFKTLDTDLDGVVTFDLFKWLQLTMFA
# T2 sequence (P04574 1-266 partner): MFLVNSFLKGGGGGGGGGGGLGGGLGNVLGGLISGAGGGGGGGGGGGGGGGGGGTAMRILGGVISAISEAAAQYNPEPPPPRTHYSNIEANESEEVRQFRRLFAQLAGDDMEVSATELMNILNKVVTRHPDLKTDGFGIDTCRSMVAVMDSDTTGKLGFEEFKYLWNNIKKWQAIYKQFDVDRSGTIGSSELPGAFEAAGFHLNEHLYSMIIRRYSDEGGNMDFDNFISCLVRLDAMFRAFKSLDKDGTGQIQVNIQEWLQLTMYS
smiles,measurement,setting,value
CC[C@H](NC(=O)[C@H](CC(C)C)NC(=O)OCc1ccccc1)C(=O)C(=O)NCc1cc(OC)cc(OC)c1 [mCalp-I],Ki,m-calpain,25 nM
same,Ki,µ-calpain,940 nM
